Columns and labels:
[1] = tested on: adult human dermal fibroblasts (HDFa); assay: CCK-8 viability assay; type: cell-based; conditions: HDFa (non-tumor); 72 h; NVDM2 7 and 15 mg per well; doxorubicin 0.1 uM
Experimental: (§1) Doxorubicin (0.1 uM) was used as a positive control treatment and gelatin beads alone were used for comparison with NVDM2 treatment. All treatments were carried out in 96-well plates in transwells. The compositions of the invention (NVDM2) were administered in two different doses: 7 mg and 15 mg per well. The viability was measured using CCK-8 viability bioassay at 72 hours after administration. […] Data represent the mean±s.d. values of % cell viability upon treatment normalized to the respective untreated sample. Blue line represents 100% of viability. Statistical significances between treated vs untreated samples at the respective time point were tested by ANOVA-I. *, p≤0.05; **; p≤0.01, ***; p≤0.001; ns, not significant. Blue dots: values of individual batches (biological replicates). Each chart represents the average value of the data from all batches tested. DS: lyophilized non irradiated powder of NVDM2; DP: lyophilized powder of NVDM2 after irradiation.
(§2) For this assay the Cell Counting Kit-8 Kit was used (Sigma-Aldrich). […] This coloured product (formazan) is measured using a spectrophotometer. […]
(§3) After O/N incubation, the medium was removed, and the cells were incubated for 72 h in the presence of the different doses of the test item. […] The plate was incubated at 37° C. for 2 hour and then absorbance at 450 nm was measured.

[2] = tested on: human bone marrow mesenchymal stem cells (hBM-MSCs); assay: CCK-8 viability assay; type: cell-based; conditions: hBM-MSCs (non-tumor); 72 h; NVDM2 7 and 15 mg per well; doxorubicin 0.1 uM
Experimental: as §1, §2, §3

Compound: COc1cccc2c1C(=O)c1c(O)c3c(c(O)c1C2=O)C[C@@](O)(C(=O)CO)C[C@@H]3O[C@H]1C[C@H](N)[C@H](O)[C@H](C)O1 [doxorubicin, Doxorubicin]
- % cell viability normalized to untreated (CCK-8) [1]: significant inhibitory impact
- % cell viability normalized to untreated (CCK-8) [2]: significant inhibitory impact

Source: patent publication US20260224632A1, “USE OF A COMPOSITION COMPRISING A NEO-SYNTHESIZED EXTRACELLLAR MATRIX FOR THE TREATMENT OF CANCER, IN PARTICULAR FOR THE INHIBITION OF CANCER VIABILITY, MIGRATION, AND PROLIFERATION” (NOVADIP BIOSCIENCES, priority 2023, published 2026)
